{
  "source": "patent US10065972B2",
  "about": "“Bicyclic or tricyclic heterocyclic compound” (MITSUBISHI TANABE PHARMA CORPORATION, priority 2014, dated 2018)",
  "note": "pIC50: −log10 of the molar value.",
  "data": [
    {"biological_target": "human recombinant KAT-II (Homo sapiens (Human), UniProt Q8N5Z0)", "sequence (Q8N5Z0 30-425)": "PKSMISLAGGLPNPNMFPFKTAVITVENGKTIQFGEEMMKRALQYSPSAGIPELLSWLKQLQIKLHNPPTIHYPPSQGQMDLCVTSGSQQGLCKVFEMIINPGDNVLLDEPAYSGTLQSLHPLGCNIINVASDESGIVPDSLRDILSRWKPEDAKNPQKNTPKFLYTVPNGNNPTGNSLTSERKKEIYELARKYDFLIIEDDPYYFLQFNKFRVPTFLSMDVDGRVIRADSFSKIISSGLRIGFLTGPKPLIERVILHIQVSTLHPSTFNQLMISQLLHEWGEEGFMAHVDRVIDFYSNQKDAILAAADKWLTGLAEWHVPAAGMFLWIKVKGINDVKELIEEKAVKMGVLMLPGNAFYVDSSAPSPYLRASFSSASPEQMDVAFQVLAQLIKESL", "test": "KAT-II inhibitory test", "type": "biochemical", "conditions": "3.0 μmol/L kynurenine, 37° C., 1 hr, pH 8.0; kynurenic acid quantified by HPLC", "outline": "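Kynurenic acid formation was measured by HPLC fluorescence (354 nm excitation, 460 nm emission) against an external standard curve. The substrate was 3.0 μmol/L kynurenine with 10 μmol/L pyridoxal phosphate, at pH 8.0 Tris-acetate, 37 °C for 1 hr, using 2.0 ng/μL amylose-purified N-terminal His/MBP-tagged recombinant enzyme. Duplicate measurements were made per concentration.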", "values": [
      {"smiles": "CC(=O)c1nc2sc(N3CCC[C@@H]3C(=O)NCc3ccccc3)nc2c(=O)n1C", "note": "[Example 411, (R)-1-(5-acetyl-6-methyl-7-oxo-6,7-dihydro[1,3]thiazolo[5,4-d]pyrimidin-2-yl)-N-benzylpyrrolidine-2-carboxamide]", "pIC50": 7.82},
      {"smiles": "COc1ccc(Cn2c(C(C)(C)F)nc3sc(N4CCC[C@@H]4C(=O)NCc4ccccc4)nc3c2=O)c(OC)c1", "note": "[Example 414, (R)-N-benzyl-1-[6-(2,4-dimethoxybenzyl)-5-(2-fluoropropan-2-yl)-7-oxo-6,7-dihydro[1,3]thiazolo[5,4-d]pyrimidin-2-yl]pyrrolidine-2-carboxamide]", "pIC50": 7.37},
      {"smiles": "CC(C)c1nc2sc(N(C)[C@H](C)C(=O)NCc3ccccc3)nc2c(=O)[nH]1", "note": "[Example 486, (R)-N-benzyl-2-{N′-[5-(propan-2-yl)-7-oxo-6,7-dihydro[1,3]thiazolo[5,4-d]pyrimidin-2-yl]-N′-methylamino}propionamide]", "pIC50": 7.82},
      {"smiles": "O=C(NCc1ccccc1)[C@H]1CCCN1c1nc2c(=O)[nH]c(-c3ccccc3F)nc2s1", "note": "[Example 489, (R)-N-benzyl-1-[5-(2-fluorophenyl)-7-oxo-6,7-dihydro[1,3]thiazolo[5,4-d]pyrimidin-2-yl]pyrrolidine-2-carboxamide]", "pIC50": 8.22},
      {"smiles": "C[C@@H](NC(=O)[C@H]1CCCN1c1nc2c(=O)[nH]c(-c3ccc(F)cc3F)nc2s1)c1ccccc1", "note": "[Example 499, (R)-1-[5-(2,4-difluorophenyl)-7-oxo-6,7-dihydro[1,3]thiazolo[5,4-d]pyrimidin-2-yl]N-((R)-1-phenylethyl)pyrrolidine-2-carboxamide]", "pIC50": 8.15},
      {"smiles": "Cc1ccc(-c2nc3sc(N4CCC[C@@H]4C(=O)NCc4ccccc4)nc3c(=O)[nH]2)s1", "note": "[Example 500, (R)-N-benzyl-1-[5-(5-methylthiophen-2-yl)-7-oxo-6,7-dihydro[1,3]thiazolo[5,4-d]pyrimidin-2-yl]pyrrolidine-2-carboxamide]", "pIC50": 7.39},
      {"smiles": "Cc1cc(F)c(-c2nc3sc(N4CCC[C@@H]4C(=O)NCc4ccccc4)nc3c(=O)[nH]2)s1", "note": "[Example 501, (R)-N-benzyl-1-[5-(3-fluoro-5-methylthiophen-2-yl)-7-oxo-6,7-dihydro[1,3]thiazolo[5,4-d]pyrimidin-2-yl]pyrrolidine-2-carboxamide]", "pIC50": 7.77},
      {"smiles": "O=C(NCc1ccccc1)[C@H]1CCCN1c1nc2c(=O)[nH]c(C(F)(F)c3ccccc3)nc2s1", "note": "[Example 524, (R)-N-benzyl-1-{5-[difluoro(phenyl)methyl]-7-oxo-6,7-dihydro[1,3]thiazolo[5,4-d]pyrimidin-2-yl}pyrrolidine-2-carboxamide]", "pIC50": 8.40},
      {"smiles": "O=C(NCc1ccccc1)[C@H]1CCCN1c1nc2c(=O)[nH]c(C(F)(F)CCS(=O)(=O)c3ccccc3)nc2s1", "note": "[Example 530, (R)-N-benzyl-1-[5-(3-benzenesulfonyl-1,1-difluoropropyl)-7-oxo-6,7-dihydro-[1,3]thiazolo[5,4-d]pyrimidin-2-yl]pyrrolidine-2-carboxamide]", "pIC50": 7.72},
      {"smiles": "C[C@H](C(=O)NCc1ccccc1)N(C)c1nc2c(=O)[nH]c(-c3ccccc3F)nc2s1", "note": "[Example 532, (R)-N-benzyl-2-{N′-[5-(2-fluorophenyl)-7-oxo-6,7-dihydro[1,3]thiazolo[5,4-d]pyrimidin-2-yl]-N′-methylamino}propionamide]", "pIC50": 7.77},
      {"smiles": "O=C(NCc1ccccc1)[C@H]1CCCN1c1nc2c(=O)[nH]c(C(F)(F)F)nc2s1", "note": "[Example 536, (R)-N-benzyl-1-(7-oxo-5-trifluoromethyl-6,7-dihydro[1,3]thiazolo[5,4-d]pyrimidin-2-yl)pyrrolidine-2-carboxamide]", "pIC50": 8.16},
      {"smiles": "O=C(NCc1ccccc1)[C@H]1CCCN1c1nc2c(=O)[nH]c(C(F)F)nc2s1", "note": "[Example 539, (R)-N-benzyl-1-(5-difluoromethyl-7-oxo-6,7-dihydro[1,3]thiazolo[5,4-d]pyrimidin-2-yl)pyrrolidine-2-carboxamide]", "pIC50": 7.66},
      {"smiles": "O=C(NCc1ccccc1)[C@H]1CCCN1c1nc2c(=O)[nH]c(N3CCC[C@H]3C(F)(F)F)nc2s1", "note": "[Example 553, (R)-N-benzyl-1-{7-oxo-5-[(S)-2-(trifluoromethyl)pyrrolidin-1-yl]-6,7-dihydro[1,3]thiazolo[5,4-d]pyrimidin-2-yl}pyrrolidine-2-carboxamide]", "pIC50": 7.37},
      {"smiles": "O=C(NCc1ccccc1)[C@H]1CCCN1c1nc2c(=O)[nH]c(OCC(F)(F)F)nc2s1", "note": "[Example 555, (R)-N-benzyl-1-[7-oxo-5-(2,2,2-trifluoroethoxy)-6,7-dihydro[1,3]thiazolo[5,4-d]pyrimidin-2-yl]pyrrolidine-2-carboxamide]", "pIC50": 5.96},
      {"smiles": "COCc1nc2sc(N3CCC[C@@H]3C(=O)NCc3ccccc3)nc2c(=O)n1C1CCOCC1", "note": "[Example 565, (R)-N-benzyl-1-[5-methoxymethyl-7-oxo-6-(tetrahydro-2H-pyran-4-yl)-6,7-dihydro[1,3]thiazolo[5,4-d]pyrimidin-2-yl]pyrrolidine-2-carboxamide]", "pIC50": 8.00},
      {"smiles": "Cn1c(C2CC2)nc2sc(N3CC(F)(F)C[C@@H]3C(=O)NCc3ccccc3)nc2c1=O", "note": "[Example 572, (R)-N-benzyl-1-(5-cyclopropyl-6-methyl-7-oxo-6,7-dihydro[1,3]thiazolo[5,4-d]pyrimidin-2-yl)-4,4-difluoropyrrolidine-2-carboxamide]", "pIC50": 7.07},
      {"smiles": "Cn1c(C2(C#N)CC2)nc2sc(N3CCC[C@@H]3C(=O)NCc3ccccc3)nc2c1=O", "note": "[Example 573, (R)-N-benzyl-1-[5-(1-cyanocyclopropyl)-6-methyl-7-oxo-6,7-dihydro[1,3]thiazolo[5,4-d]pyrimidin-2-yl]pyrrolidine-2-carboxamide]", "pIC50": 7.46},
      {"smiles": "CCc1nc2sc(N3CCC[C@@H]3C(=O)COc3ccccc3)nc2c(=O)n1C", "note": "[Example 575, 5-ethyl-6-methyl-2-[(R)-2-(2-phenoxyacetyl)pyrrolidin-1-yl][1,3]thiazolo[5,4-d]pyrimidin-7(6H)-one]", "pIC50": 7.72},
      {"smiles": "COC1CN(c2nc3sc(N4CCC[C@@H]4C(=O)COc4ccccc4)nc3c(=O)n2C)C1", "note": "[Example 578, 5-(3-methoxyazetidin-1-yl)-6-methyl-2-[(R)-2-(2-phenoxyacetyl)pyrrolidin-1-yl][1,3]thiazolo[5,4-d]pyrimidin-7(6H)-one]", "pIC50": 7.55},
      {"smiles": "CCc1nc2sc(N3CCC[C@@H]3C(=O)CNc3ccccc3)nc2c(=O)n1C", "note": "[Example 579, 5-ethyl-6-methyl-2-[(R)-2-(2-phenylaminoacetyl)pyrrolidin-1-yl][1,3]thiazolo[5,4-d]pyrimidin-7(6H)-one]", "pIC50": 8.00},
      {"smiles": "O=C(NCc1ccccc1)[C@H]1CCCN1c1nc2c(=O)[nH]c(-c3c(F)cccc3F)nc2s1", "note": "[Example 583, (R)-N-benzyl-1-[5-(2,6-difluorophenyl)-7-oxo-6,7-dihydro[1,3]thiazolo[5,4-d]pyrimidin-2-yl]pyrrolidine-2-carboxamide]", "pIC50": 8.05},
      {"smiles": "Cc1noc(-c2nc3sc(N4CCC[C@@H]4C(=O)NCc4ccccc4)nc3c(=O)[nH]2)n1", "note": "[Example 585, (R)-N-benzyl-1-[5-(3-methyl-[1,2,4]oxadiazol-5-yl)-7-oxo-6,7-dihydro[1,3]thiazolo[5,4-d]pyrimidin-2-yl]pyrrolidine-2-carboxamide]", "pIC50": 7.92},
      {"smiles": "CN1CCn2c(nc3sc(N4CCC[C@@H]4C(=O)NCc4ccccc4)nc3c2=O)C1", "note": "[Example 590, (R)-N-benzyl-1-(6-methyl-10-oxo-5,7,8,10-tetrahydro-6H-pyrazino[1,2-a][1,3]thiazolo[5,4-d]pyrimidin-2-yl)pyrrolidine-2-carboxamide]", "pIC50": 6.55},
      {"smiles": "O=C(NCc1ccccc1)[C@H]1CCCN1c1nc2c(=O)n3c(nc2s1)CN(CC(F)F)CC3", "note": "[Example 593, (R)-N-benzyl-1-[6-(2,2-difluoroethyl)-10-oxo-5,7,8,10-tetrahydro-6H-pyrazino[1,2-a][1,3]thiazolo[5,4-d]pyrimidin-2-yl]pyrrolidine-2-carboxamide]", "pIC50": 7.29},
      {"smiles": "C[C@@H]1CN(C)Cc2nc3sc(N4CCC[C@@H]4C(=O)NCc4ccccc4)nc3c(=O)n21", "note": "[Example 601, (R)-N-benzyl-1-[(R)-6,8-dimethyl-10-oxo-5,7,8,10-tetrahydro-6H-pyrazino[1,2-a][1,3]thiazolo[5,4-d]pyrimidin-2-yl]pyrrolidine-2-carboxamide]", "pIC50": 6.85},
      {"smiles": "CN1CCn2c1nc1sc(N3CCC[C@@H]3C(=O)NCc3ccccc3)nc1c2=O", "note": "[Example 602, (R)-N-benzyl-1-(5-methyl-9-oxo-5,6,7,9-tetrahydroimidazo[1,2-a][1,3]thiazolo[5,4-d]pyrimidin-2-yl)pyrrolidine-2-carboxamide]", "pIC50": 7.51},
      {"smiles": "O=C(NCc1ccccc1)[C@H]1CCCN1c1nc2c(=O)n3c(nc2s1)C(F)(F)CCC3", "note": "[Example 605, (R)-N-benzyl-1-(5,5-difluoro-10-oxo-5,7,8,10-tetrahydro-6H-pyrido[1,2-a][1,3]thiazolo[5,4-d]pyrimidin-2-yl)pyrrolidine-2-carboxamide]", "pIC50": 8.09},
      {"smiles": "CC(C)(O)c1nc2sc(N3CCC[C@@H]3C(=O)NCc3ccccc3)nc2c(=O)[nH]1", "note": "[Example 606, (R)-N-benzyl-1-[5-(2-hydroxypropan-2-yl)-7-oxo-6,7-dihydro[1,3]thiazolo[5,4-d]pyrimidin-2-yl]pyrrolidine-2-carboxamide]", "pIC50": 8.12},
      {"smiles": "Cn1c(-c2ccccc2)nc2sc(N3CC[C@@H](N)[C@@H]3C(=O)NCc3ccccc3)nc2c1=O", "note": "[Example 611, (2R,3R)-3-amino-N-benzyl-1-(6-methyl-7-oxo-5-phenyl-6,7-dihydro[1,3]thiazolo[5,4-d]pyrimidin-2-yl)pyrrolidine-2-carboxamide]", "pIC50": 6.24},
      {"smiles": "CCc1nn(CC)c(=O)c2nc(N3CCC[C@@H]3C(=O)NCc3ccccc3)sc12", "note": "[Example 612, (R)-N-benzyl-1-(5,7-diethyl-4-oxo-4,5-dihydro[1,3]thiazolo[4,5-d]pyridazin-2-yl)pyrrolidine-2-carboxamide]", "pIC50": 7.28},
      {"smiles": "CCc1nn(C2CCOCC2)c(=O)c2nc(N3CCC[C@@H]3C(=O)NCc3ccccc3)sc12", "note": "[Example 613, (R)-N-benzyl-1-[7-ethyl-4-oxo-5-(tetrahydro-2H-pyran-4-yl)-4,5-dihydro[1,3]thiazolo[4,5-d]pyridazin-2-yl]pyrrolidine-2-carboxamide]", "pIC50": 7.66}
    ]}
  ]
}
